Measurements published in publication PMC2839369 (Chimia, 2009).

Target: thymidine kinase from Thermotoga maritima (TmTK) (Thermotoga maritima, UniProt Q9WYN2)
Assay: crystal structures and activity
Format: binding
Details: phosphoryl donor site

thymidine kinase from Thermotoga maritima (TmTK), sequence (Q9WYN2 whole entry): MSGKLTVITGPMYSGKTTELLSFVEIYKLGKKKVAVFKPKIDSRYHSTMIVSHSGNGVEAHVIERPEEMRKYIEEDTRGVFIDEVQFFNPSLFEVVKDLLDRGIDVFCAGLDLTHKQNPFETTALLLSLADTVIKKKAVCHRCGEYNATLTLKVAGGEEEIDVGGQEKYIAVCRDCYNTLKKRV

## Nc1ncnc2c1ncn2[C@@H]1O[C@H](COP(=O)(O)OP(=O)(O)OP(=O)(O)O)[C@@H](O)[C@H]1O [ATP]
  crystal structures and activity (summary of authors' earlier work): large conformational change in the native homotetramer associated with ATP binding
